Earlier results, collected in publication PMC6594753, “Cystic fibrosis drug ivacaftor stimulates CFTR channels at picomolar concentrations” (eLife, 2019).

Test system: CFTR
Design: method as in Yeh et al., 2019
Settings: ref Yeh et al., 2019; cited from earlier work

SMILES: CC1(C)Cc2c(sc(NC(=O)c3ccn[nH]3)c2C(N)=O)C(C)(C)O1 [GLPG-1837]
- Hill coefficients of dose response curves for activation: close to unity
